How the values were obtained:
[1] = test system: B16F10 cells; experiment: CCK-8 cell viability / cytotoxicity test; type: cell-based, murine; conditions: Mus musculus, B16-F10, DOX concentration, 24 hours, read-out: half-maximal inhibitory concentration (IC50)
Method: Cells (B16F10 and RAW 264.7 cell line) were grown in DMEM containing 10% FBS at 37° C. with 5% CO2. B16F10 and RAW 264.7 cells were seeded on the 96 well tissue culture plates (1×10^4 per well) and cultured for 24 hours. To confirm the biosafety of ASL and AEx, the cells were treated with various concentrations of ASL and AEx and incubated for 24 hours. For the cytotoxicity test, B16F10 cells were given the various concentrations of dAEx, dEx, DOX. In addition to the further competition test, B16F10 cells were incubated with the cyclic RGD (2 μM) for 2 hours and treated with the various concentrations of dAEx. After 24 hours of the treatment, to investigate the cell survival, cells were washed using the fresh PBS twice, and 10% CCK-8 containing DMEM was added to each well and incubated for 1 hour. The absorbance was measured using a microplate reader at 450 nm.

[2] = test system: cleaved caspase-3 and cleaved PARP of B16F10 cells; experiment: Apoptotic activity: cleaved caspase-3 and cleaved PARP by ELISA and western blot; type: cell-based, murine; conditions: DOX 5 μM, 24 hours
Method: B16F10 cells were seeded in a 100 mm cell culture dish with cell density at 4.4×10^6 and incubated for 24 hours. After the treatment of various agents with a fixed concentration of DOX (5 μM) for 24 hours, proteins were collected using a cell lysis buffer on ice. Proteins were separated by electrophoresis and transferred to PVDF membranes. Cleaved caspase-3, cleaved PARP, and β-actin (Cell Signaling Technology, Danvers, MA, USA) were used as primary antibodies, and IRDye secondary antibodies (LI-COR Biosciences, Lincoln, NE, USA) were used as secondary antibodies. The protein bands were imaged using the Odyssey CLx (LI-COR Biosciences, Lincoln, NE, USA). The apoptotic activities of dAEx were evaluated by measuring the level of cleaved caspase-3, and cleaved PARP in the protein samples with a cleaved PARP (Cell Signaling Technology, Danvers, MA, USA) and a cleaved caspase-3 (R&D systems, Minneapolis, MN, USA) ELISA kit according to manufacturer's protocol.

[3] = test system: B16F10 tumor; experiment: B16F10 murine tumor model, therapeutic efficacy; type: in vivo, mice; conditions: IV every three days, DOX 5 mg/kg (ASL 2.5 mg/kg), vs untreated control
Method: B16F10 cells (1×10^6) were directly injected into the flank of 6 weeks old mice. The mice were randomly grouped by six in each and observed until the cancer volume reached ˜50 mm^3. […] The tumor volume was calculated based on the formula: (width^2×length)/2. On day 18, the mice were sacrificed, and organs were harvested for histological analysis. H&E and TUNEL staining were performed using the paraffin-embedded tissues.

## COc1cccc2c1C(=O)c1c(O)c3c(c(O)c1C2=O)C[C@@](O)(C(=O)CO)C[C@@H]3O[C@H]1C[C@H](N)[C@H](O)[C@H](C)O1 [DOX, Doxorubicin]
[1]
  IC50: 9.85 ± 1.06 µM
[2]
  expression of cleaved caspase-3 and cleaved PARP: slight activation
[3]
  tumor growth (tumor volume): did not significantly inhibit tumor growth

— patent US20250289878A1, “SURFACE-MODIFIED EXOSOMES AND METHODS OF USE” (The Board of Regents of the University of Oklahoma, priority 2021, published 2025)
